This experiment has as its system Onchocerca gutturosa adult male worms. The experiment in a line: Onchocerciasis in vitro screening model Onchocerca gutturosa (worm motility score and MTT/formazan colorimetry). Particulars: read-out: O. gutt Act class.

Consider 41 compounds from patent US20240025891A1 (Celgene Corporation, priority 2020, published 2024).

pIC50: −log10 of the molar value. Read-outs that look alike come from different tables or passages of the source.

Procedure: Onchocerciasis: In Vitro Screening Model Onchocerca gutturosa
Parasite and cell cultures. Onchocerca gutturosa adult male worms were obtained by dissection from the nuchal ligament connective tissues of naturally infected cattle, from Gambia, W Africa.
The worms were maintained for at least 24 h in culture before use in Eagles Minimum Essential Medium with Earl's Salts (Gibco, UK)+10% heat inactivated new born calf serum (Gibco, UK)+antibiotic cover of 200 units/ml penicillin, 200 μg/ml streptomycin and 0.5 μg/ml amphotericin B (Sigma, UK). Only normally active specimens were used in the test. All cultures and assays were conducted at 37° C. under an atmosphere of 5% CO2 in air.
Drug sensitivity assays. Compound stock solutions were prepared in 100% DMSO unless otherwise indicated and diluted into the medium. Any unused compound stocks were stored at −20° C. Assays were performed in sterile 24-well (2 ml) plates (Falcon, UK).
Worms were then transferred individually to each well of the plate using fine forceps. Worm viability was assessed using 2 parameters: • The measurement of mean worm motility scores on a scale of 0 (immotile) to 10 (maximum) every 24 h, terminating at 120 h, using an Olympus inverted microscope. • The biochemical evaluation of worm viability using MTT/formazan colorimetry. The MTT assay was carried out after the last motility reading (120 h). Single intact worms were placed in each well of a 48-well plate (Falcon, UK) containing 0.5 ml of a solution consisting of 0.5 mg/ml MTT (Sigma UK) in phosphate buffered saline, and then incubated for 30 min at 37° C. The worms were removed, blotted carefully, and individually transferred to separate wells of a 96-well microtiter plate, each containing 200 μl of DMSO to solubilize the formazan. After 1 h the plate was gently agitated to disperse the color evenly and the absorbance value (optical density) of the resulting formazan solution was determined at 490 nm using a multi-well scanning spectrophotometer (Elisa-reader, Dynatech, UK). Inhibition of formazan formation was correlated with worm damage or death.
Primary screen. New compounds were usually tested at 1.25×10^−5 M. Also expressed in μg/ml.
Secondary screen. […] Serial 1 in 4 drug dilutions was carried out to find activity endpoint and EC50 values for motility reduction and inhibition of formazan formation were produced. EC50 values were determined using Excel or Origin V7 scientific graphing and data analysis software.

As to `O=C(NCC1CCOCC1)c1sc(Nc2cc(C(F)(F)F)ccn2)nc1-c1ccccn1` [Example 203, 4-(pyridin-2-yl)-N-((tetrahydro-2H-pyran-4-yl)methyl)-2-(4-(trifluoromethyl)pyridin-2-ylamino) thiazole-5-carboxamide], for the setting “Onchocerca gutturosa”, the pIC50 is 5.30 to 6.30.
With `COc1ccc(Nc2nc(-c3ccccn3)cs2)nc1` [Example 218, N-(5-methoxypyridin-2-yl)-4-(pyridin-2-yl)thiazol-2-amine], the pIC50 (Onchocerca gutturosa) was 6.30 to 6.70.
On the same count and under the same terms, the result for `Cc1sc(Nc2cc(C(=O)NCC(F)(F)F)ccn2)nc1-c1ccc(OC2CCOCC2)cn1` [Example 106, 2-(5-methyl-4-(5-(tetrahydro-2H-pyran-4-yloxy)pyridin-2-yl)thiazol-2-ylamino)-N-(2,2,2-trifluoroethyl) isonicotinamide] reads 6.30 to 6.70.
For the compound `FC(F)(F)c1cc(Nc2nc(-c3ccccn3)cs2)ncc1Br` [Example 140, N-(5-bromo-4-(trifluoro-methyl)pyridin-2-yl)-4-(pyridin-2-yl)thiazol-2-amine], the pIC50 (Onchocerca gutturosa) is 5.30 to 6.30.
On the same count and under the same terms, the result for `Cc1sc(Nc2ccccn2)nc1-c1ccccn1` [Example 227, 5-methyl-N,4-di(pyridin-2-yl)thiazol-2-amine] reads over 6.70.
With `c1ccc(-c2csc(Nc3cc(-c4ncccn4)ccn3)n2)nc1` [Example 174, 4-(pyridin-2-yl)-N-(4-(pyrimidin-2-yl)pyridin-2-yl)thiazol-2-amine], the pIC50 (Onchocerca gutturosa) is 6.30 to 6.70.
The same measure, in the same setting: the result for `Cc1ccnc(Nc2nc(-c3ccccn3)c(CCOC3CCC3)s2)c1` [Example 180, 5-(2-cyclobutoxy-ethyl)-N-(4-methylpyridin-2-yl)-4-(pyridin-2-yl)thiazol-2-amine] reads over 6.70; that for `CCOc1cnc(-c2csc(Nc3ncccc3C)n2)c(C)c1` [Example 75, 4-(5-ethoxy-3-methylpyridin-2-yl)-N-(3-methylpyridin-2-yl)thiazol-2-amine], over 6.70; that for `O=C(c1sc(Nc2cc(C(F)(F)F)ccn2)nc1-c1ccccn1)N1CCN2CCCC2C1` (centres unmarked) [Example 192, (hexahydro-pyrrolo [1,2-a]pyrazin-2(1H)-yl)(4-(pyridin-2-yl)-2-(4-(trifluoromethyl)pyridin-2-ylamino)thiazol-5-yl)methanone], 6.30 to 6.70.
`COc1ccc(-c2cc(Nc3cc(OC(C)C)ccn3)n(C)n2)nc1` [Example 233, 4-isopropoxy-N-(3-(5-methoxypyridin-2-yl)-1-methyl-1H-pyrazol-5-yl)pyridin-2-amine]: the pIC50 (Onchocerca gutturosa) was 5.30 to 6.30.
On to `CC(=O)N(C)c1cc(C(F)(F)F)cnc1Nc1nc(-c2cc3n(n2)CCC3)cs1` [Example 108, N-(2-(4-(5,6-dihydro-4H-pyrrolo[1,2-b]pyrazol-2-yl)thiazol-2-ylamino)-5-(trifluoromethyl)pyridin-3-yl)-N-methylacetamide], for which, for the setting “Onchocerca gutturosa”, the pIC50 is over 6.70.
The same measure, in the same setting: the result for `Cc1ccnc(Nc2nc(-c3ncccc3C)c(-c3ccccc3)s2)c1` [Example 110, 4-(3-methylpyridin-2-yl)-N-(4-methylpyridin-2-yl)-5-phenylthiazol-2-amine] reads 5.30 to 6.30; that for `Cc1sc(Nc2cc(C(=O)NCC(F)(F)F)ccn2)nc1-c1ccccn1` [Example 198, 2-(5-methyl-4-(pyridin-2-yl)thiazol-2-ylamino)-N-(2,2,2-trifluoroethyl) isonicotinamide], over 6.70; that for `O=C1CN(C(=O)c2ccnc(Nc3nc(-c4ccccn4)cs3)c2)CCN1` [Example 149, 4-(2-(4-(pyridin-2-yl)thiazol-2-ylamino)isonicotinoyl) piperazin-2-one], 5.30 to 6.30.
Still for that read-out and setting: the result for `CC(=O)N(C)c1cc(C(F)(F)F)cnc1Nc1nc(-c2ccc(OC(C)C)cn2)cs1` [Example 93, N-(2-(4-(5-isopropoxypyridin-2-yl)thiazol-2-ylamino)-5-(trifluoromethyl)pyridin-3-yl)-N-methylacetamide] reads over 6.70; that for `CCOc1ccc(-c2csc(Nc3ncc(C(F)(F)F)cc3C)n2)nc1` [Example 84, 4-(5-ethoxypyridin-2-yl)-N-(3-methyl-5-(trifluoromethyl)pyridin-2-yl)thiazol-2-amine], 6.30 to 6.70.
Still for that read-out and setting: with `O=C(NC1CCCC1)c1ccnc(Nc2nc(-c3ccccn3)cs2)c1` [Example 147, N-cyclopentyl-2-(4-(pyridin-2-yl)thiazol-2-ylamino) isonicotinamide] the figure was over 6.70; with `COc1ccc(-c2cc(Nc3cc(OC(C)C)ccn3)sn2)nc1` [Example 117, N-(4-isopropoxypyridin-2-yl)-3-(5-methoxypyridin-2-yl)isothiazol-5-amine], 5.30 to 6.30; with `FC(F)(F)c1ccnc(Nc2nc(-c3ccccn3)c(COCC3CC3)s2)c1` [Example 166, 5-((cyclopropyl-methoxy)methyl)-4-(pyridin-2-yl)-N-(4-(trifluoromethyl)pyridin-2-yl) thiazol-2-amine], 6.30 to 6.70.
In the case of `Cc1ccnc(-c2csc(Nc3ncccc3C)n2)c1` [Example 222, N-(3-methylpyridin-2-yl)-4-(4-methylpyridin-2-yl)thiazol-2-amine], the pIC50 (Onchocerca gutturosa) is 5.30 to 6.30.
For `O=C(N1CCN(c2ccc(Nc3nc(-c4ccccn4)cs3)nc2)CC1)C1(C(F)(F)F)CC1` [Example 155, (4-(6-(4-(pyridin-2-yl)thiazol-2-ylamino)pyridin-3-yl)piperazin-1-yl)(1-(trifluoromethyl)cyclopropyl) methanone], the pIC50 (Onchocerca gutturosa) was over 6.70.
Regarding `c1ccc(-c2ccnc(Nc3nc(-c4ccccn4)cs3)c2)cc1` [Example 126, N-(4-phenylpyridin-2-yl)-4-(pyridin-2-yl)thiazol-2-amine], the pIC50 (Onchocerca gutturosa) was over 6.70.
As for “N- (cyclohexyl- methyl)- 4-(pyridin- 2-yl)-2-(4- (trifluoromethyl) pyridin-2- ylamino) thiazole-5- carboxamide [Example 202]”, the pIC50 (O. gutturosa adult male worms in vitro) was 5.30 to 6.30.
`c1ccc(-c2ccnc(Nc3cc(-c4ccccn4)n[nH]3)c2)cc1` [Example 238, 4-phenyl-N-(3-(pyridin-2-yl)-1H-pyrazol-5-yl)pyridin-2-amine]: the pIC50 (Onchocerca gutturosa) was over 6.70.
On to `c1ccc(-c2csc(Nc3cc(C4CCC4)ccn3)n2)nc1` [Example 168, N-(4-cyclobutyl-pyridin-2-yl)-4-(pyridin-2-yl)thiazol-2-amine], for which the pIC50 (Onchocerca gutturosa) is over 6.70.
The same measure, in the same setting: the result for `Cc1ccnc(Nc2nc(-c3ccccn3)c(C)s2)c1` [Example 132, 5-methyl-N-(4-methyl-pyridin-2-yl)-4-(pyridin-2-yl)thiazol-2-amine] reads 6.30 to 6.70.
On the same count and under the same terms, with `Cc1cccnc1-c1csc(Nc2cc(-c3ccccc3)ccn2)n1` [Example 100, 4-(3-methylpyridin-2-yl)-N-(4-phenylpyridin-2-yl)thiazol-2-amine] the figure was over 6.70; with `CCOc1ccc(-c2csc(Nc3cccc(C)n3)n2)nc1` [Example 90, 4-(5-ethoxypyridin-2-yl)-N-(6-methylpyridin-2-yl)thiazol-2-amine], over 6.70.
Take `Cc1ccnc(Nc2nc(-c3cc(Cl)ccn3)cs2)c1` [Example 223, 4-(4-chloropyridin-2-yl)-N-(4-methylpyridin-2-yl)thiazol-2-amine]: the pIC50 (Onchocerca gutturosa) was over 6.70.
Same read-out and setting: the result for `FC(F)(F)c1ccnc(Nc2nc(-c3ccccn3)c(CN3CCCCC3)s2)c1` [Example 164, 5-(piperidin-1-ylmethyl)-4-(pyridin-2-yl)-N-(4-(trifluoromethyl)pyridin-2-yl)thiazol-2-amine] reads over 6.70.
Consider `COCCNC(=O)c1ccnc(Nc2nc(-c3ccccn3)cs2)c1` [Example 142, N-(2-methoxyethyl)-2-(4-(pyridin-2-yl)thiazol-2-ylamino) isonicotinamide], for which the pIC50 (Onchocerca gutturosa) is 6.30 to 6.70.
As for `Cc1sc(Nc2cc(C(F)(F)F)ccn2)nc1-c1ccccn1` [Example 162, 5-methyl-4-(pyridin-2-yl)-N-(4-(trifluoromethyl)pyridin-2-yl) thiazol-2-amine], under “Onchocerca gutturosa”, the pIC50 was over 6.70.
Consider `Cc1cccnc1Nc1cc(-c2ccc(OC3CCOCC3)cn2)nn1-c1ccccc1` [Example 234, 3-methyl-N-(1-phenyl-3-(5-(tetrahydro-2H-pyran-4-yloxy)pyridin-2-yl)-1H-pyrazol-5-yl)pyridin-2-amine], for which the pIC50 (Onchocerca gutturosa) is 5.30 to 6.30.
Take `Cc1cccnc1Nc1cc(-c2ccc(OC3CCOCC3)cn2)ns1` [Example 116, N-(3-methylpyridin-2-yl)-3-(5-(tetrahydro-2H-pyran-4-yloxy)pyridin-2-yl)isothiazol-5-amine]: where the note is “Onchocerca gutturosa”, the pIC50 was 5.30 to 6.30.
As for `OCc1sc(Nc2cc(F)ccn2)nc1-c1ccccn1` [Example 193, (2-(4-fluoropyridin-2-ylamino)-4-(pyridin-2-yl)thiazol-5-yl)methanol], the pIC50 (Onchocerca gutturosa) was over 6.70.
With `CC(C)c1ccc(Nc2nc(-c3ccccn3)cs2)nc1` [Example 219, N-(5-isopropylpyridin-2-yl)-4-(pyridin-2-yl)thiazol-2-amine], under “Onchocerca gutturosa”, the pIC50 is over 6.70.
For the compound `c1ccc(-c2csc(Nc3cc4cc[nH]c4cn3)n2)nc1` [Example 137, 4-(pyridin-2-yl)-N-(1H-pyrrolo [2,3-c]pyridin-5-yl)thiazol-2-amine], the pIC50 (Onchocerca gutturosa) is 5.30 to 6.30.
With `c1ccc(-c2csc(Nc3ccc4[nH]ccc4n3)n2)nc1` [Example 135, 4-(pyridin-2-yl)-N-(1H-pyrrolo [3,2-b]pyridin-5-yl)thiazol-2-amine], the pIC50 (Onchocerca gutturosa) is 5.30 to 6.30.
As for `CNC(=O)c1ccc(-c2ccnc(Nc3nc(-c4ccccn4)cs3)c2)cc1` [Example 171, N-methyl-4-(2-(4-(pyridin-2-yl)thiazol-2-ylamino)pyridin-4-yl)benzamide], the pIC50 (Onchocerca gutturosa) was over 6.70.
Consider `O=C(NCCN1CCCC1)c1ccnc(Nc2nc(-c3ccccn3)cs2)c1` [Example 152, 2-(4-(pyridin-2-yl)thiazol-2-ylamino)-N-(2-(pyrrolidin-1-yl)ethyl) isonicotinamide], for which the pIC50 (Onchocerca gutturosa) was 6.30 to 6.70.
Still for that read-out and setting: with `CC(=O)N(C)c1cc(C(F)(F)F)cnc1Nc1nc(-c2cc(OC3COC3)ccn2)cs1` [Example 73, N-methyl-N-(2-(4-(4-(oxetan-3-yloxy)pyridin-2-yl)thiazol-2-ylamino)-5-(trifluoromethyl)pyridin-3-yl)acetamide] the figure was 6.30 to 6.70.
